Results taken from ChEMBL document CHEMBL1150281, “Oleanane-type triterpenes from the flowers and roots of Saussurea muliensis” (2008).

Experiments:
Assay type in all cases: functional
[1] = test system: Escherichia coli; assay: Antimicrobial activity against Escherichia coli ATCC 25922
[2] = test system: Bacillus cereus; assay: Antimicrobial activity against Bacillus cereus
[3] = test system: Staphylococcus aureus; assay: Antimicrobial activity against Staphylococcus aureus ATCC 25923
[4] = test system: Candida albicans; assay: Antimicrobial activity against Candida albicans

Measured: MIC

CC1(C)[C@@H](O)CC[C@]2(C)[C@H]3CC=C4[C@@H]5C[C@@](C)(C(=O)O)C[C@H](O)[C@]5(C)CC[C@@]4(C)[C@]3(C)CC[C@@H]12
> 50 µg/mL: [1] | [2] | [3] | [4]

CO[C@]1(CO)C[C@H]2C3=CC[C@@H]4[C@@]5(C)CC[C@@H](OC(C)=O)C(C)(C)[C@@H]5CC[C@@]4(C)[C@]3(C)CC[C@@]2(C)[C@@H](OC(C)=O)[C@H]1O
> 50 µg/mL: [1] | [2] | [3] | [4]

CC1(C)[C@H](OC(=O)/C=C/c2ccc(O)c(O)c2)CC[C@]2(C)[C@H]3CC=C4[C@@H]5C[C@@](C)(C(=O)O)CC[C@]5(C)CC[C@@]4(C)[C@]3(C)CC[C@@H]12
> 50 µg/mL: [1] | [2] | [3] | [4]

CCCCCCCCCCCCCCCC(=O)OC[C@@]1(O)C[C@H]2C3=CC[C@@H]4[C@@]5(C)CC[C@@H](OC(C)=O)C(C)(C)[C@@H]5CC[C@@]4(C)[C@]3(C)CC[C@@]2(C)[C@@H](OC(C)=O)[C@H]1O
> 50 µg/mL: [1] | [2] | [3] | [4]

CC(=O)O[C@@H]1CC[C@]2(C)[C@H]3CC=C4[C@@H]5C[C@](O)(CO)[C@H](O)[C@H](OC(C)=O)[C@]5(C)CC[C@@]4(C)[C@]3(C)CC[C@H]2C1(C)C
> 50 µg/mL: [1] | [2] | [3] | [4]

CC1(C)[C@H](OC(=O)/C=C/c2ccc(O)cc2)CC[C@]2(C)[C@H]3CC=C4[C@@H]5C[C@@](C)(C(=O)O)CC[C@]5(C)CC[C@@]4(C)[C@]3(C)CC[C@@H]12
> 50 µg/mL: [1] | [2] | [3] | [4]
